Laboratory results reported in ChEMBL document CHEMBL4312004, “From bench to counter: Discovery and validation of a peony extract as tyrosinase inhibiting cosmeceutical” (Eur J Med Chem, 2019).
Active and inactive are the calls of the source. No cut-off for these calls is given here.

Columns and labels:
B16-F10 [1] = test: Antimelanogenic activity against C57BL/6 mouse B16F10 cells incubated for 10 to 50 uM incubated for 24 hrs; type: functional
[2] = Stability of compound in DMSO at 10 mM incubated for 24 hrs by HPLC analysis; type: physicochemical; details: 10000 µM
[3] = Stability of compound in IMDM cell medium incubated for 24 hrs by HPLC analysis; type: physicochemical
B16-F10 [4] = test: Antimelanogenic activity against C57BL/6 mouse B16F10 cells incubated for 72 hrs; type: functional, cell-based
[5] = Drug degradation in IMDM cell medium incubated for 24 hrs by HPLC analysis; type: physicochemical; details: read-out: Drug degradation
B16-F10 [6] = test: Antimelanogenic activity against C57BL/6 mouse B16F10 cells at 50 uM incubated for 72 hrs relative to control; type: functional
[7] = molecular target: T1, Tyrosinase (Agaricus bisporus) (UniProt O42713); test: Ratio of IC50 for arbutin to IC50 for test compound for inhibition of mushroom tyrosinase
T1 sequence (whole entry): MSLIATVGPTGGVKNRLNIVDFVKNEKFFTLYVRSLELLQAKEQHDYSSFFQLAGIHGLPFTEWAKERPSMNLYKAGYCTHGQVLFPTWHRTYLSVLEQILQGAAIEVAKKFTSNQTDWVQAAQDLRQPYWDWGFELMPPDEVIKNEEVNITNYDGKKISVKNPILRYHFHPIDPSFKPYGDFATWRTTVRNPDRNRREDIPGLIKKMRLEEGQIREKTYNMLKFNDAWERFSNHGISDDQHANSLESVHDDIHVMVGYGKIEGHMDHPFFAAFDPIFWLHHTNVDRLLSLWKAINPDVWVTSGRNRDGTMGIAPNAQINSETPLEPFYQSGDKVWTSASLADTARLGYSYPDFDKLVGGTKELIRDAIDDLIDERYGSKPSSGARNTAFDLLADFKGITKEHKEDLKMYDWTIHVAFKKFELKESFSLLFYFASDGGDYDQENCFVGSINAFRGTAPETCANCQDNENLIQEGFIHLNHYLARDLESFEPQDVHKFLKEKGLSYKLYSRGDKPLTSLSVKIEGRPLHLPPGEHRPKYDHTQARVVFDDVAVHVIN

B16-F10 [8] = test: Antimelanogenic activity against C57BL/6 mouse B16F10 cells at 10 uM incubated for 72 hrs relative to control; type: functional
Tyrosinase = molecular target: T2, Tyrosinase (Agaricus bisporus, UniProt O42713); test: Inhibition of mushroom tyrosinase using L-dopa as substrate preincubated for 10 mins followed by substrate addition and measured for 5 mins by photometric analysis
T2 sequence (O42713 whole entry): T1 sequence (whole entry)

B16-F10 [9] = test: Cytotoxicity against C57BL/6 mouse B16F10 cells assessed as reduction in cell viability incubated for 72 hrs by SRB assay relative to control; type: cell-based; details: b16-f10, 72 h
B16-F10 [10] = test: Cytotoxicity against C57BL/6 mouse B16F10 cells assessed as increase in membrane blebbing at 50 uM incubated for 48 hrs by microscopic method; type: cell-based; details: b16-f10, 48 h
B16-F10 [11] = test: Cytotoxicity against C57BL/6 mouse B16F10 cells assessed as increase in cell shrinking at 50 uM incubated for 48 hrs by microscopic method; type: cell-based; details: b16-f10, 48 h

Stability [2]	Stability [3]	degraded at 24 h [5] [%]	Ratio IC50 [7]	IC50 (Tyrosinase) [µM]	SMILES	Activity (B16-F10 [1])	Activity (B16-F10 [4])	Activity (B16-F10 [6]) [%]	Activity (B16-F10 [8]) [%]	Activity (B16-F10 [9])	Activity (B16-F10 [10])	Activity (B16-F10 [11])
					OC[C@H]1O[C@@H](Oc2ccc(O)cc2)[C@H](O)[C@@H](O)[C@@H]1O	inactive						
Stable	Unstable	30	73	19	OC[C@H]1O[C@@H](Oc2ccc(/C=C/c3cc(O)cc(O)c3)cc2)[C@H](O)[C@@H](O)[C@@H]1O [GOB C]	25%	Dose-dependent effect	65	50	Non-Toxic		
Stable	Stable				OC[C@H]1O[C@@H](Oc2cc(O)cc(/C=C/c3ccc(O)cc3)c2)[C@H](O)[C@@H](O)[C@@H]1O [PICEID]	inactive						
Stable	Stable				Oc1ccc(/C=C/c2cc(O)cc(O)c2)cc1 [RESVERATROL]	25%	Dose-dependent effect	65	50	70%	Toxic	Toxic
